Where two headings read alike, the source gives them in different places.

One assay deals with A-431. Kind of assay: Cell proliferation GI50, A-431 cells (Table 6). It is filed as cell-based.
Another assay relates to PC-9. As to the kind of experiment: Cell proliferation assay, PC-9 cells (CellTiter-Glo, 72 hours). It is filed as cell-based. The settings on record: PC9 cells, CellTiter-Glo, read-out: PC9 GI50. A digest of the protocol: (§1)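 Luminescent viable-cell counts were taken on a day 0 plate at dosing and again at endpoint. Proliferation was calculated as (sample − G0)/(DMSO − G0). Seeding was 5000 Ba/F3 or 500 PC-9 cells per well in RPMI1640, followed by overnight attachment and serial compound dilutions. The GI50 was fitted.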
On the technique in general: Cellular ATP, detected with luciferase, serves as a proxy for viable cell number.

The target in a further assay is T1, EGFR Exon19Del (Homo sapiens, UniProt P00533, DEL746-750).
T1 construct: purchased Carna Bio
As to the kind of experiment: Inhibition of EGFR Exon19Del biochemical enzymatic activity (HTRF). Particulars: EGFR Del19, 1 mM ATP, 1 h, room temperature, read-out: IC50 @Del19. A digest of the protocol:
(§2)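 Following 1 h at room temperature with titrated compound, 1 mM ATP and 1 μM biotin-TK peptide (Mg2+/Mn2+, CHAPS, DTT, 0.5% DMSO buffer), EDTA-containing detection reagent terminated each enzyme reaction. Time-resolved fluorescence (ex 320, em 665/615 nm) ratio tracked activity. IC50 values came from four-parameter fits.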

Assay [1] has as its system Ba/F3 cells expressing EGFR mutations. Kind of assay: Cell proliferation assay, Ba/F3 cells expressing EGFR mutations (CellTiter-Glo, 72 hours). In kind it is cell-based. Particulars: CellTiter-Glo. Put shortly:
as §1

Another assay has as its target T2, EGFR L858R/T790M (Homo sapiens, UniProt P00533, L858R/T790M).
T2 construct: purchased Carna Bio
As to the kind of experiment: Inhibition of EGFR L858R/T790M biochemical enzymatic activity (HTRF). Particulars: EGFR L858R-T790M, 1 mM ATP, 1 h, room temperature, read-out: IC50 (nM) @L858R-T790M. A digest of the protocol:
as §2

In a further assay the target is T3, EGFR L858R (Homo sapiens, UniProt P00533, L858R).
T3 construct: purchased Carna Bio
Kind of assay: Inhibition of EGFR L858R biochemical enzymatic activity (HTRF). Particulars: 1 mM ATP, 1 h, room temperature, read-out: IC50 (nM) @L858R. A digest of the protocol: as §2
A general note: In TR-FRET formats the signal depends on donor and acceptor labels being close together.

A further assay has as its target T4, EGFR Exon19Del/T790M (Homo sapiens, UniProt P00533, DEL746-750/T790M).
T4 construct: purchased Carna Bio
As to the kind of experiment: Inhibition of EGFR Exon19Del/T790M biochemical enzymatic activity (HTRF). Particulars: EGFR Del19-T790M, 1 mM ATP, 1 h, room temperature, read-out: IC50 (nM) @Del19-T790M. Put shortly: as §2

A further assay concerns the target T5, EGFR (d746-750 C797S) (Homo sapiens, UniProt P00533, C797S/DEL746-750).
T5 construct: purchased signalchem
As to the kind of experiment: Inhibition of EGFR (d746-750 C797S) biochemical enzymatic activity (HTRF). Particulars: EGFR Del19-C797S, 1 mM ATP, 1 h, room temperature, read-out: IC50 (nM) @Del19-C797S. A digest of the protocol: as §2

A further assay concerns the target T6, EGFR (C797S L858R) (Homo sapiens, UniProt P00533, C797S/L858R).
T6 construct: purchased signalchem
Kind of assay: Inhibition of EGFR (C797S L858R) biochemical enzymatic activity (HTRF). Particulars: EGFR L858-C797S, 1 mM ATP, 1 h, room temperature, read-out: IC50 (nM) @L858-C797S. Put shortly: as §2

The target in the next assay is T7, EGFR wild type (Homo sapiens, UniProt P00533).
T7 construct: purchased Carna Bio
As to the kind of experiment: Inhibition of EGFR wild type biochemical enzymatic activity (HTRF). Particulars: EGFR WT, 1 mM ATP, 1 h, room temperature, read-out: IC50 (nM) @WT. A digest of the protocol: as §2

The target of assay [2] is T8, EGFR[T790M/C797S/d746-750] (Homo sapiens, UniProt P00533, C797S/DEL746-750/T790M).
T8 construct: purchased Carna Bio
As to the kind of experiment: Inhibition of EGFR[T790M/C797S/d746-750] biochemical enzymatic activity (HTRF). Particulars: EGFR T790M-C797S-Del19, 1 mM ATP, 1 h, room temperature, read-out: IC50 (nM) @T790M - C797S - Del19. Put shortly:
as §2

The next assay has as its target T9, EGFR[T790M/C797S/L858R] (Homo sapiens, UniProt P00533, C797S/L858R/T790M).
T9 construct: purchased Carna Bio
As to the kind of experiment: Inhibition of EGFR[T790M/C797S/L858R] biochemical enzymatic activity (HTRF). Particulars: EGFR T790M-C797S-L858R, 1 mM ATP, 1 h, room temperature, read-out: IC50 (nM) @T790M- C797S - L858R. A digest of the protocol: as §2

The mark [3] stands for this setting: BaF3 cells, EGFR DEL19-C797S, read-out: DEL19-C797S/BaF3 GI50.
Setting [4] is: BaF3 cells, EGFR DEL19-T790-C797S, read-out: DEL19-T790-C797S/BaF3 GI50.
Where [5] appears, read: BaF3 cells, EGFR L858R, read-out: L858R/BaF3 GI50.
Setting [6] is: BaF3 cells, EGFR L858R-C797S, read-out: L858R-C797S/BaF3 GI50.
The mark [7] stands for this setting: BaF3 cells, EGFR L858R-T790-C797S, read-out: L858R-T790-C797S/BaF3 GI50.
[8] abbreviates: BaF3 cells, EGFR L858R-T790M, read-out: L858R-T790M/BaF3 GI50.
Setting [9] is: EGFR DEL19-T790M, read-out: DEL19-T790M GI50.

T5 sequence (P00533 with tags, fused parts or gaps DEL746-750/C797S limits assumed): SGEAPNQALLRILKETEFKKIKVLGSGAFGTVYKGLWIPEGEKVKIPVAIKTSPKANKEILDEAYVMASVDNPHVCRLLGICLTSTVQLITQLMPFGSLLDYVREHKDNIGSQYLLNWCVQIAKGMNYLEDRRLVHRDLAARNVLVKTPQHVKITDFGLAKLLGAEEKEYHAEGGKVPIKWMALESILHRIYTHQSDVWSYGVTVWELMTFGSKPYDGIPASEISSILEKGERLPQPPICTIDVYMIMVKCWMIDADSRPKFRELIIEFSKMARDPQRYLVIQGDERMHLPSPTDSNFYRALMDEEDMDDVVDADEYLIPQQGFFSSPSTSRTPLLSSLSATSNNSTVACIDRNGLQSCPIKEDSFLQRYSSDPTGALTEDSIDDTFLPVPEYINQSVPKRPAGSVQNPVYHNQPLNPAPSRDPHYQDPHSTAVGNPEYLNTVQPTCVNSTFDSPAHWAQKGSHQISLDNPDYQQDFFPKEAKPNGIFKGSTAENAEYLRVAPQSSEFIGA
T3 sequence (P00533 25-1210 L858R): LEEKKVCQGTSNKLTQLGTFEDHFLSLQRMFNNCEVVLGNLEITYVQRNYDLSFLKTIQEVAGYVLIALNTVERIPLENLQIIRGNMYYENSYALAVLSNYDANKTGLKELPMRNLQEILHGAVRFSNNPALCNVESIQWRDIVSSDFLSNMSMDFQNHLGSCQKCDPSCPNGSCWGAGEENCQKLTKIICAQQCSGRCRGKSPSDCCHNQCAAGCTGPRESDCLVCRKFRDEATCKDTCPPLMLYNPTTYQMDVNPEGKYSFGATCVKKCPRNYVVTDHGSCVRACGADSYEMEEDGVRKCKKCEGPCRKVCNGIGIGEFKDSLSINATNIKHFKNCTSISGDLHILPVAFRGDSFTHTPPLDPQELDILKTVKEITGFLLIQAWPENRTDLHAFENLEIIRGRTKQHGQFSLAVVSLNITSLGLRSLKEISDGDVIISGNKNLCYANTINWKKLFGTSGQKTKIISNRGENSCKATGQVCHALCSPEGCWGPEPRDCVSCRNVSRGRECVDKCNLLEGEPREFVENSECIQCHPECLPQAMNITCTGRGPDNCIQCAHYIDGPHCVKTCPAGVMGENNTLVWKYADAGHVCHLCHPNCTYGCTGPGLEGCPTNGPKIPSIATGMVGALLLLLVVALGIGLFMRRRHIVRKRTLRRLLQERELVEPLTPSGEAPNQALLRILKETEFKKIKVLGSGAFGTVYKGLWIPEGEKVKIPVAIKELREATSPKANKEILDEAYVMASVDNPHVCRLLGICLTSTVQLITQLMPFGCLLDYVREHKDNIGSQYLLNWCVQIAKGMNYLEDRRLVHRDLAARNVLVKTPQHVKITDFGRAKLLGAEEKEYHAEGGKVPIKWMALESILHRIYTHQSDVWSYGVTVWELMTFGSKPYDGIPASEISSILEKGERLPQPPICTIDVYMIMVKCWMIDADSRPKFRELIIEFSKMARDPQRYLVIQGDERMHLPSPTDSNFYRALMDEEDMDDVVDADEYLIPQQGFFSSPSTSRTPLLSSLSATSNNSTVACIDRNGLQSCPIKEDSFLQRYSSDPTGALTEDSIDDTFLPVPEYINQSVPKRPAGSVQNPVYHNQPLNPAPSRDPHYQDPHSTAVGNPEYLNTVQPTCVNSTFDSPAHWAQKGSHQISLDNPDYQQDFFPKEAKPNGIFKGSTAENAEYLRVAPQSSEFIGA
T1 sequence (P00533 with tags, fused parts or gaps DEL746-750 limits assumed): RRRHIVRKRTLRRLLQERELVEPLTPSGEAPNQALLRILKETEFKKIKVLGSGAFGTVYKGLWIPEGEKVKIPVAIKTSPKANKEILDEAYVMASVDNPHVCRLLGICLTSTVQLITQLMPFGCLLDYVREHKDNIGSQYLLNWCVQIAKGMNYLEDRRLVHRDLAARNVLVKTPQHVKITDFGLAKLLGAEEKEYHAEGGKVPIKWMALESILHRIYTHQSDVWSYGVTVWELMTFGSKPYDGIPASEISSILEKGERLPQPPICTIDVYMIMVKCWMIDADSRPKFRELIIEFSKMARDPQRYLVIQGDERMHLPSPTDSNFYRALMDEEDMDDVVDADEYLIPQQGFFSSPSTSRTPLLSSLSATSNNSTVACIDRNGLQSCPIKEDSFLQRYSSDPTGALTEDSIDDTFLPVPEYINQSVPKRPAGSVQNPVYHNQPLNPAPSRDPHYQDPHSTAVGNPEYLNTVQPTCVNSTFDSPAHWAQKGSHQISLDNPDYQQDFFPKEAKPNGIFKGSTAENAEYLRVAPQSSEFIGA
T2 sequence (P00533 25-1210 T790M/L858R): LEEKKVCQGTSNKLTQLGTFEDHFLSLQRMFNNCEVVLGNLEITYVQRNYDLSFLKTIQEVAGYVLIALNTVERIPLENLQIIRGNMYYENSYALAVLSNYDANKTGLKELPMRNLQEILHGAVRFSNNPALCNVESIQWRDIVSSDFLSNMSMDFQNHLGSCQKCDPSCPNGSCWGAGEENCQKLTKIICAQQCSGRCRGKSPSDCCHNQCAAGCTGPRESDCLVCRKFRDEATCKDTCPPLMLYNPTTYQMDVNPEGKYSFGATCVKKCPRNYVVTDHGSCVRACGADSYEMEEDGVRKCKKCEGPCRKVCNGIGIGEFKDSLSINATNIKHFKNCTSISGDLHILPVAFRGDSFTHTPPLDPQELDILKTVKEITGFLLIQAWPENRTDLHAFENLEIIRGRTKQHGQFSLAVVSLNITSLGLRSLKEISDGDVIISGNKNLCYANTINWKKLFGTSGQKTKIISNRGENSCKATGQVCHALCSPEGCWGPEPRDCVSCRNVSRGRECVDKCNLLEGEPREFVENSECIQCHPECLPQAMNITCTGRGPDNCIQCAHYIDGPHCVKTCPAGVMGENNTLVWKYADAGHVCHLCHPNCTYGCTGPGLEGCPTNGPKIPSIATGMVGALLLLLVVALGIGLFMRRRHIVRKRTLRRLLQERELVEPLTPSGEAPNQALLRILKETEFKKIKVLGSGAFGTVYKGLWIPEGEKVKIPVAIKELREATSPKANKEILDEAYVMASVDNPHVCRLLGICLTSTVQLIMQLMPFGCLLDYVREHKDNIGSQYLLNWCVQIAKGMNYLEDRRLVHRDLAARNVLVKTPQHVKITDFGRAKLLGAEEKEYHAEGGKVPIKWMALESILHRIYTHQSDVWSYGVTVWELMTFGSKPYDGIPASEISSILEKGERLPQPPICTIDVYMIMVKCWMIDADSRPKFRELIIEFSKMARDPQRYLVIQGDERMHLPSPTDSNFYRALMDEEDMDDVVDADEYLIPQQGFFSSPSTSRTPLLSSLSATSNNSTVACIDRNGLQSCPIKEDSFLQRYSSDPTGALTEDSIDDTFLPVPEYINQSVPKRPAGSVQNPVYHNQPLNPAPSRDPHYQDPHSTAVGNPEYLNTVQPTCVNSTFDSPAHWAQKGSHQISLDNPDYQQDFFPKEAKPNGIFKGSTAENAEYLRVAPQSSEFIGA
T4 sequence (P00533 with tags, fused parts or gaps DEL746-750/T790M limits assumed): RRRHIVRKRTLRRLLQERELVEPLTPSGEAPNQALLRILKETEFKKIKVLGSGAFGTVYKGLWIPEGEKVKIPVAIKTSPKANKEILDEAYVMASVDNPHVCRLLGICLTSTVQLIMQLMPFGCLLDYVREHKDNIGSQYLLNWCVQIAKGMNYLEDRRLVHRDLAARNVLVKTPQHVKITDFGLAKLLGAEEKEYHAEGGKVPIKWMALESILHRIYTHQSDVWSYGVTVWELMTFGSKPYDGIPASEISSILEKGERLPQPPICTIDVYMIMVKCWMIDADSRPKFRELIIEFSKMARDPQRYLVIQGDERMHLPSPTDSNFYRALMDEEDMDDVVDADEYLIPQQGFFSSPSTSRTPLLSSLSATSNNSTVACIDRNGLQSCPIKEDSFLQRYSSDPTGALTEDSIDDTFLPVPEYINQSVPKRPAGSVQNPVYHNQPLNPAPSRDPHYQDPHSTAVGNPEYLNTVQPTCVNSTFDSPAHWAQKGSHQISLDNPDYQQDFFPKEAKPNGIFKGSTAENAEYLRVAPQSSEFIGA
T8 sequence (P00533 with tags, fused parts or gaps DEL746-750/T790M/C797S limits assumed): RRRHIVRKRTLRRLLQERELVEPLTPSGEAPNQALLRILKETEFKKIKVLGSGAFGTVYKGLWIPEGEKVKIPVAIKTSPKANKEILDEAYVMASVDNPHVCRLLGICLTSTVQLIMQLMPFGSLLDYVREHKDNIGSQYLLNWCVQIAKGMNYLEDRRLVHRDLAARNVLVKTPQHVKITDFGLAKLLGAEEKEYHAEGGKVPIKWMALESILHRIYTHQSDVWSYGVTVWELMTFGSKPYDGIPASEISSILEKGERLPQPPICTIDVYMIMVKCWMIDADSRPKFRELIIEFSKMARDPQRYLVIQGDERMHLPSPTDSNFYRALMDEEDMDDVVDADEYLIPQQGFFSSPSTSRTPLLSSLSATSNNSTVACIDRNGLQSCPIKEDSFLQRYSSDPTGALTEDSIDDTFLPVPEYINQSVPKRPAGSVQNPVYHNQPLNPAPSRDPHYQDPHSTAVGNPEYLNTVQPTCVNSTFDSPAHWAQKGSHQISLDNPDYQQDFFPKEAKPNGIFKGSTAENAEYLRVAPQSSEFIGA

As for `CN1CCC2(C1)CN(c1ccc3nc4n(c3c1)C13CCC(CN(CCOc5c(cnn5C)-c5cc(cn(C)c5=O)C(=O)N4)C1)C3)C2` (single isomer, unassigned) [Example A78B], the GI50 with A-431 (A-431 cells) was found to be 434 nM; with PC-9, 2.4 nM; in [1] (setting [3]) it was 0.51 nM; in assay [1] (setting [4]), 0.82 nM; in [1] (setting [5]), 0.87 nM; in [1] (setting [6]), 0.74 nM. Further, the GI50 is 0.9 nM in [1] (setting [7]), 1 nM in [1] (setting [8]) and 0.75 nM in assay [1] (setting [9]). Further, the IC50 (usually the point on the concentration scale where inhibition reaches its midpoint) is 1.2 nM on EGFR Exon19Del; 2.4 nM on EGFR L858R/T790M; 2.4 nM at EGFR L858R; 2.7 nM at EGFR Exon19Del/T790M; 0.91 nM on EGFR (d746-750 C797S); 2.2 nM at EGFR (C797S L858R). Also, the IC50 on EGFR wild type was 11 nM; in [2], 1.6 nM; on EGFR[T790M/C797S/L858R], 1.4 nM.

For `Cn1ncc2c1OCCN1CC3CCC(C3)(C1)n1c(nc3ccc(N4CCC(N5CC(F)C5)C4)cc31)NC(=O)c1cc-2c(=O)n(C)c1` (single isomer, unassigned) [Example A94B1, 5-[3-(3-Fluoroazetidin-1-yl)pyrrolidin-1-yl]-15,21-dimethyl-23-oxa-2,9,11,15,20,21,26-heptaazaheptacyclo[24.4.1.1^{1,28}.1^{13,17}.0^{2,10}.0^{3,8}.0^{18,22}]tritriaconta-3,5,7,9,13,17(33),18(22),19-octaene-12,16-dione], the GI50 in the assay on A-431 (A-431 cells) worked out at 1110 nM; in the assay on PC-9, 16 nM; in assay [1] (setting [3]), 0.73 nM; in [1] (setting [4]) it was 6.5 nM; in [1] (setting [5]), 2 nM; in assay [1] (setting [6]) it was 6 nM. Also, the GI50 came to 3.9 nM in [1] (setting [7]), 12 nM in assay [1] (setting [8]) and 3 nM in [1] (setting [9]). Moreover, the IC50 on EGFR Exon19Del stood at 10 nM; at EGFR L858R/T790M, 8.8 nM; at EGFR L858R, 27 nM; at EGFR Exon19Del/T790M, 7.1 nM; on EGFR (d746-750 C797S), 3.7 nM; at EGFR (C797S L858R) it was 15 nM. The values for the IC50 (on EGFR wild type; in [2]; at EGFR[T790M/C797S/L858R]) were 148 nM, 5 nM and 5 nM, respectively.

On to `C[C@@H]1CCCOc2c(cnn2C)-c2cc(cn(C)c2=O)C(=O)Nc2nc3ccc(N4CCC(N(C)C)C(F)C4)cc3n2C1` (stereo partly drawn) [Example A38], for which the GI50 with A-431 (Homo sapiens, A-431, A-431 cells) amounted to 315 nM; in the assay on PC-9 (Homo sapiens, PC-9, 72 h) it was 6.2 nM; in assay [1] (Mus musculus, BaF3, 72 h, BaF3 cells, EGFR DEL19-C797S, read-out: DEL19-C797S/BaF3 GI50), 1.4 nM; in assay [1] (Mus musculus, BaF3, 72 h, BaF3 cells, EGFR DEL19-T790-C797S, read-out: DEL19-T790-C797S/BaF3 GI50) it was 4.8 nM; in assay [1] (Mus musculus, BaF3, 72 h, BaF3 cells, EGFR L858R, read-out: L858R/BaF3 GI50) it was 4.1 nM; in assay [1] (Mus musculus, BaF3, 72 h, BaF3 cells, EGFR L858R-C797S, read-out: L858R-C797S/BaF3 GI50), 4.2 nM. The GI50 in assay [1] (Mus musculus, BaF3, 72 h, BaF3 cells, EGFR L858R-T790-C797S, read-out: L858R-T790-C797S/BaF3 GI50) came to 3.2 nM; in [1] (Mus musculus, BaF3, 72 h, BaF3 cells, EGFR L858R-T790M, read-out: L858R-T790M/BaF3 GI50), 13 nM; in [1] (Mus musculus, BaF3, 72 h, EGFR DEL19-T790M, read-out: DEL19-T790M GI50), 7.3 nM. Moreover, the IC50 is 1.3 nM at EGFR Exon19Del; 2.7 nM at EGFR L858R/T790M; 9.7 nM at EGFR L858R; 1.6 nM on EGFR Exon19Del/T790M; 0.81 nM at EGFR (d746-750 C797S); 2.9 nM on EGFR (C797S L858R). Besides, the IC50 worked out at 159 nM on EGFR wild type, 1.7 nM in assay [2] and 1.7 nM at EGFR[T790M/C797S/L858R].

For the molecule `CN1CCN(C2CN(c3ccc4nc5n(c4c3)C34CCC(CN(CCOc6c(cnn6C)-c6cc(cn(C)c6=O)C(=O)N5)C3)C4)C2)CC1` (single isomer, unassigned) [Example A70B], the GI50 in the assay with A-431 (A-431 cells) came out at 744 nM; with PC-9 it was 2.7 nM; in assay [1] (setting [3]), 0.66 nM; in assay [1] (setting [4]), 1 nM; in assay [1] (setting [5]), 0.76 nM; in assay [1] (setting [6]), 2.7 nM. The GI50 stood at 0.91 nM in assay [1] (setting [7]), 5.9 nM in [1] (setting [8]) and 1.6 nM in [1] (setting [9]). The 50% inhibitory concentration (IC50) at EGFR Exon19Del came out at 1.6 nM; at EGFR L858R/T790M it was 1.8 nM; at EGFR L858R, 4.7 nM; at EGFR Exon19Del/T790M, 1.9 nM; on EGFR (d746-750 C797S), 0.91 nM; at EGFR (C797S L858R), 3.6 nM. The figures for the IC50 (on EGFR wild type; in assay [2]; on EGFR[T790M/C797S/L858R]) were 19 nM, 2.1 nM and 2.1 nM, respectively.

The values are drawn from patent US20260365670A1, “EGFR INHIBITORS AND USES THEREOF” (DIZAL (JIANGSU) PHARMACEUTICAL CO., LTD., priority 2022, published 2026).
